Patent publication US12233063B2, “Compositions and methods for treating eye disorders” (THE REGENTS OF THE UNIVERSITY OF MICHIGAN, priority 2017, dated 2025)
Where two headings read alike, the source gives them in different places.

Columns and labels:
caspase 3/7 = assay: Caspase 3/7 activity assay in 661W cells; assay type: cell-based; conditions: 8 hours
Protocol: (§1) Caspase Activity Assay. Luminescent assay kits (Caspase-Glo 8 and 3/7 Assay Systems, Promega, Madison, WI, Cat Nos. G8200 and G8090, respectively) were utilized to measure caspase 8 and caspase 3/7 activity according to the manufacturer's instructions. The 661W cells were seeded in white-walled 96-well plates at 2,500 cells/well for 24 hours prior to treatment. […] Caspase activity was measured at 8 hours status post treatment by incubating the cells with substrate for 1 hour according to the manufacturer's instructions. Luminescence was measured in a plate reader luminometer (BMG Labtech, Inc, Cary, NC).

caspase 8 [1] = assay: Caspase 8 activity in experimental retinal detachment; assay type: in vivo, Brown-Norway rats; conditions: 3 days after retinal detachment, subretinal injection
Protocol: Experimental Model of Retinal Detachment. Detachments were created in Brown-Norway, adult rats as previously described (Wubben et al., supra; Besirli et al., 2010 supra; Zacks, D. N. et al. Invest. Ophthalmol. Vis. Sci. 44, 1262-1267 (2003); Zacks, D. N., et al. Invest. Ophthalmol. Vis. Sci. 45, 4563-4569 (2004); Besirli, C. G., et al. Invest. Ophthalmol. Vis. Sci. 52, 4193-4199 (2011)). Briefly, rodents were anesthetized with a mix of ketamine (100 mg/mL) and xylazine (20 mg/mL), and pupils were dilated with topical phenylephrine (2.5%) and tropicamide (1%). A 25-gauge microvitreoretinal blade (Walcott Rx Products, Ocean View, N.J.) was used to create a sclerotomy located 1-2 mm posterior to the limbus with care taken to avoid lens damage. […]
1 tablet of protease inhibitor (Complete Mini; Roche Diagnostics, Indianapolis, IN) and 1 tablet of phosphatase inhibitor (PhosSTOP; Roche Diagnostics, Indianapolis, IN) per 10 mL were added to the lysis buffer. The homogenates were centrifuged at 10,000 g for 10 minutes at 4° C., and total protein concentration of the supernatant was determined using a Micro BCA protein assay kit (ThermoScientific, Rockford, IL). Substrate was incubated with 50 μg of protein in a white-walled 96 well-plate at room temperature for 1 hour and luminescence was measured as above. […]

[2] = Ocular pharmacokinetics after single intravitreal injection, aqueous humor; assay type: in vivo, Dutch-belted rabbits; conditions: male, Dutch-belted, other: intravitreal, rabbit aqueous humor
Protocol: Pharmacokinetics. Pharmacokinetic studies were performed in Dutch-belted rabbits. As previously described, male rabbits were anesthetized with inhalant anesthesia (sevoflurane) prior to each aqueous humor collection or intravitreal injection. An external heat source was used to prevent hypothermia. […] A Flynn pediatric lid speculum was placed in the eye and betadine was applied to the injection site. The temporal sclera was marked with a caliper 2 mm from the limbus. […] Delivery of the compound into the eye was confirmed via clinical inspection (Smith, A. et al. J Ocul Pharmacol Ther 34, 477-485 (2018)). An aqueous humor sample (100 microliters) was collected from each eye prior to intravitreal injection to serve as a baseline control. A 30-gauge needle on a 1 ml syringe was used to enter the anterior chamber of the eye and aspirate the aqueous humor in a controlled fashion. […] Samples were analyzed by LC-MS/MS (liquid chromatography-mass spectrometry/mass spectrometry). […] Rabbits are the most commonly used animals in intravitreal pharmacokinetic studies with good correlation to the human eye (Del Amo, E. M. & Urtti, A. Exp. Eye Res. 137, 111-124 (2015)). As described above, two different concentrations were injected into the vitreous of rabbits, and the aqueous humor was sampled at various times thereafter. […]

[3] = tested on: genes involved in glucose metabolism; assay: Quantitative PCR of glucose metabolism genes in treated rat retinas; assay type: in vivo; conditions: 2 μL of 7.5 mM intravitreal, 3 days, fold change cut-off of 2, vs untreated and DMSO
Protocol: Quantitative Real-Time PCR. Intravitreal injections of ML-265 or vehicle (DMSO) were performed in Brown-Norway, adult rats as described above. […] Left eyes were injected with ML-265 or DMSO. The right eye served as the control, with all steps of the procedure performed, except for introduction of the blunt cannula and injection of ML-265 or DMSO. Retinas were harvested 3 days post-injection.
Total RNA was purified from retinal tissues of rats using RNeasy Mini kit (Qiagen, Cat No./ID: 74104) and QIAshredder (Qiagen, Cat No./ID: 79654). cDNA was synthesized using RT^2 First Strand Kit (Cat. No./ID: 330401) according to the manufacturer's instructions. Quantitative PCR was performed in at least triplicate for the different experimental groups using the Rat Glucose Metabolism RT^2 Profiler™ PCR Array (Qiagen, Cat No./ID: PARN-006Z). This PCR array allows simultaneous profiling of 84 genes involved in glucose metabolism and includes housekeeping genes for normalization. Reactions were performed and monitored using a CFX96 real time PCR system (Bio-Rad Laboratories), 1 cycle at 95° C. for 10 min followed by 40 cycles at 95° C. for 15 sec, 60° C. for 1 min. Data analysis was performed using the RT^2 Profiler™ PCR Array Data Analysis Template from Qiagen. Those genes whose relative expression level was low or not detected in all experimental groups were excluded from analysis. […]

pyruvate kinase (PK) = target: T1, pyruvate kinase (PK) (Rattus norvegicus, UniProt P11980); assay: In vivo pyruvate kinase activation in rat retina after intravitreal injection; conditions: rats
T1 construct: from tissue; host or cells: retina of Brown-Norway adult rats
T1 sequence (P11980 1-531 isoform P11980-2): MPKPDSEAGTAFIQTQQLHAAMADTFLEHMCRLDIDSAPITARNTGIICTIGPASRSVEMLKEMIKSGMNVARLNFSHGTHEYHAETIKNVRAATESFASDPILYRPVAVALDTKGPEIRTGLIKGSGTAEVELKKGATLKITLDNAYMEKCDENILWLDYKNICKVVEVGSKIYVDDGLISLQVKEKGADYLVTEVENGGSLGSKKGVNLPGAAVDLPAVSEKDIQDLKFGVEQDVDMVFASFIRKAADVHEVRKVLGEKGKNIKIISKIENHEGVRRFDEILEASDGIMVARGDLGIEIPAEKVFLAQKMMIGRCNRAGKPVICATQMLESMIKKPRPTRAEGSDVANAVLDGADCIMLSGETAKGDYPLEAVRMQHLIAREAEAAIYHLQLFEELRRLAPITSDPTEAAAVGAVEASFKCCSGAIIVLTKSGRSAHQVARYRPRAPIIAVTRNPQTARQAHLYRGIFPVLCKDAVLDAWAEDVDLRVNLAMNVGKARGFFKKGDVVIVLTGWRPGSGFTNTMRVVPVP
Protocol: Animals. Intravitreal injections of ML-265 or vehicle (DMSO) were performed in Brown-Norway, adult rats. Rodents were anesthetized with a mix of ketamine (100 mg/mL) and xylazine (20 mg/mL), and pupils were dilated with topical phenylephrine (2.5%) and tropicamide (1%). A 25-gauge microvitreoretinal blade (Walcott Rx Products, Ocean View, N.J.) was used to create a sclerotomy located 1-2 mm posterior to the limbus with care taken to avoid lens damage. A blunt, 34-gauge cannula was introduced through the sclerotomy into the vitreous cavity. […] Four hours after intravitreal injection, retinas from experimental rat eyes were dissected from the RPE-choroid, homogenized, and lysed in RIPA Lysis and Extraction Buffer with protease inhibitors. The assay was carried out using 4 microliters of rat retinal lysate in an enzyme buffer mixture (50 mM Tris-HCl, pH 7.4, 100 mM KCl, 5 mM MgCl2, 1 mM ADP, 0.5 mM PEP, and 0.2 mM NADH) and 8 units of LDH similar to what has been previously described (Wubben et al., supra; Raj ala et al., supra). Pyruvate kinase activity was normalized to total protein in each retinal lysate.
The retinas of these animals were then harvested 15 days after injection and assayed for PK activity (FIG. 20).

[4] = target: T2, pyruvate kinase (PK) in 661W cells (Mus musculus, UniProt P52480); assay: Pyruvate kinase activity in lysates of 661W cells treated for 2 hours; assay type: cell-based; conditions: for AC50: 2 hours incubation
T2 construct: endogenous in cells; host or cells: 661W photoreceptor cell line
T2 sequence (P52480 whole entry): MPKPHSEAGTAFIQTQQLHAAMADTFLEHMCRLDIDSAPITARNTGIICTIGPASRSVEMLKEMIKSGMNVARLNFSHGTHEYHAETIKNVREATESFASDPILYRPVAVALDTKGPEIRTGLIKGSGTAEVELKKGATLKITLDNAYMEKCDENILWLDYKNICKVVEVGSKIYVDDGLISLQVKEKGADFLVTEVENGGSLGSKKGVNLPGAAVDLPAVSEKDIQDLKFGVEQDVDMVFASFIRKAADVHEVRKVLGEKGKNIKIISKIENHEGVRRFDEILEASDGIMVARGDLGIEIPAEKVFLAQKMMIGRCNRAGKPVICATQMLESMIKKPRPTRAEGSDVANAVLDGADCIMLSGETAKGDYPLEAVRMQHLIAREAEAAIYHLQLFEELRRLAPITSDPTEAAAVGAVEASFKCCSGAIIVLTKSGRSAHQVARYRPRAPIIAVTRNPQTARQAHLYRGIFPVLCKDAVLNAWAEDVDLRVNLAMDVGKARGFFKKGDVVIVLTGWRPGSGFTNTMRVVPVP
Protocol: Cell Culture. The 661W photoreceptor cell line was generously provided by Dr. Muayyad al-Ubaidi (Department of Cell Biology, University of Oklahoma Health Sciences Center, Oklahoma City, OK, USA) (al-Ubaidi, M. R. et al. J. Cell Biol. 119, 1681-1687 (1992)). The 661W cell line was maintained in Dulbecco's modified Eagle's medium containing 10% fetal bovine serum, 300 mg/L glutamine, 32 mg/L putrescine, 40 μL/L of β-mercaptoethanol, and 40 μg/L of both hydrocortisone 21-hemisuccinate and progesterone. The media also contained penicillin (90 units/mL) and streptomycin (0.09 mg/mL). Cells were grown at 37° C. in a humidified atmosphere of 5% CO2 and 95% air.
Cell culture. For cell line experiments, media was replaced prior to the start of treatment with DMSO or ML-265. […] Cells were lysed and homogenized in RIPA Lysis and Extraction Buffer (Catalog number: 89900, Life Technologies Corporation, Grand Island, NY) with protease inhibitors (Complete-Mini, Roche Diagnostics, Indianapolis, IN) and clarified by centrifugation at 10,000 rpm for 10 minutes. Five microliters of the supernatant was used to assess pyruvate kinase activity, and the activity was normalized to total protein content as previously described (Walsh et al., supra).

human recombinant PKM2 = target: T3, human recombinant PKM2 (Homo sapiens, UniProt P14618); assay: Pyruvate kinase activity enzyme assay, recombinant enzyme (LDH-coupled); assay type: biochemical; conditions: read-out: max activation
T3 construct: purchased Sigma SAE0021
T3 sequence (P14618 whole entry): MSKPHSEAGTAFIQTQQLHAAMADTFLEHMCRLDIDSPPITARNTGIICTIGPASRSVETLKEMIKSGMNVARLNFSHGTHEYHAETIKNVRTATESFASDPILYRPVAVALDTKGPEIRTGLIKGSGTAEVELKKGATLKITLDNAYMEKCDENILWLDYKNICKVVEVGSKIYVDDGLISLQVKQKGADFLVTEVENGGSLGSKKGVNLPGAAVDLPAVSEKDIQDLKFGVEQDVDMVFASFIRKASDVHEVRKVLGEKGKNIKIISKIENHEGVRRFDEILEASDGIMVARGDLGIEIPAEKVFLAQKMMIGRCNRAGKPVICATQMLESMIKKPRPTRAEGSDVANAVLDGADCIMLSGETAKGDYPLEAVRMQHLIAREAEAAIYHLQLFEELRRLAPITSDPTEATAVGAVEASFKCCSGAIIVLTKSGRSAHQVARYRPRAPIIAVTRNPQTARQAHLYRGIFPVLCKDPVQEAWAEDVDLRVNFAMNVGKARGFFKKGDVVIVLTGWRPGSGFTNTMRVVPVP
Protocol: Pyruvate Kinase Activity Enzyme Assay. Recombinant Enzyme. A continuous, enzyme-coupled assay, which uses lactate dehydrogenase (LDH) and measures the depletion of NADH via absorbance at 340 nm was utilized to determine the pyruvate kinase activity. […] The decrease in absorbance at 340 nm was monitored using a Spectrostar Omega plate reader (BMG LABTECH Inc., Cary, NC, USA). Initial velocities were calculated with the MARS software. Data were normalized to DMSO (dimethyl sulfoxide)-treated PKM2 activity.

661W cells = assay: Cell viability of 661W cells (RealTime-Glo MT); assay type: cell-based; conditions: 48 hours; for cell viability above DMSO-treated cells in standard tissue culture conditions / less cell death as compared to vehicle: FasL
Protocol: Cell viability. Cell viability was measured using a luminescent assay kit not based on ATP (RealTime-Glo MT Cell Viability Assay, Promega, Madison, WI, Cat No. G9711). 661W cells were seeded in 96-well plates (Nunc, Rochester, NY) at 2,500 cells/well 24 hours prior to treatment. […] Cell viability was measured 48 hours after treatment according to the manufacturer's instructions. […] Viability was again assessed at 48 hours after addition of FasL and HA Luminescence was measured in a plate reader luminometer (BMG Labtech, Inc, Cary, NC).

H1299 cell xenografts = conditions: cited from earlier work
caspase 8 [5] = assay: Caspase 8 activity assay in 661W cells; assay type: cell-based; conditions: 8 hours
Protocol: as §1

[6] = 500 ng/mL FasL and 250 ng/mL HA
[7] = standard tissue culture conditions
[8] = 15 days after single intravitreal injection of 2 μL of 7.5 mM

## Cn1c2cc([S+](C)[O-])sc2c2cnn(Cc3cccc(N)c3)c(=O)c21 (stereo not drawn) [ML-265]
Caspase 3/7; [6]
  caspase 3/7 activation: significantly decreased
Caspase 3/7; [7]
  caspase 3/7 activity: no significant effect
Caspase 8 [1]
  caspase 8 activity vs vehicle: statistically significantly less
[2]; 23 mM, 50 microliters per eye, highest concentration (1 mM final vitreous), read-out: t1/2 terminal phase (converted)
  half-life: 177 h
[2]; between 6 and 48 hours, 100 μM and 1 mM final vitreous concentration, read-out: t1/2 initial phase (converted)
  half-life: 7.8 h
[3]
  normalized gene expression patterns, glucose metabolism genes: very similar
Pyruvate kinase (PK); rat, intravitreal injection, saturating concentrations, read-out: maximum activation of PK
  Emax: ≤ 170%
Pyruvate kinase (PK); [8]
  average in vivo PK activation: 43%
  median PK activation above DMSO treated retinas: 38%
Pyruvate kinase (PK); intravitreal injection, retinas 4 hours after injection
  AC50: 59 nM
Pyruvate kinase (PK); intravitreal injection, saturating concentrations
  maximum activation of PK: 170%
[4]
  increase in PK activity: 236%
  AC50: comparable to that with recombinant protein
[4]; read-out: AC50
  AC50: 22 nM
Human recombinant PKM2
  Emax: > 250%
661W cells; 200 nM ML-265
  cell viability above DMSO-treated cells in standard tissue culture conditions: 2%
  less cell death as compared to vehicle: 109%
661W cells; 2 μM ML-265
  cell viability above DMSO-treated cells in standard tissue culture conditions: 6%
  less cell death as compared to vehicle: 123%
661W cells; [7]
  cell viability: no significant effect
H1299 cell xenografts; mice bearing H1299 cell xenografts
  tumor size and occurrence: reduce tumor size and occurrence
H1299 cell xenografts; over 7 weeks of continuous drug exposure
  toxicity: No toxicity was observed
Caspase 8 [5]; [6]
  caspase 8 activation: significantly decreased
Caspase 8 [5]; [7]
  caspase 8 activity: no significant effect
